# Target: T1, HPK1 (Homo sapiens, UniProt Q92918)
# T1 construct: A HiBiT tag was introduced by CRISPR on the N terminus of HPK1 in Jurkat cells; host or cells: Jurkat (ATCC TIB-152), monoclonal CRISPR HiBiT knock-in line
# Experiment: HPK1 Cellular HiBiT Degradation Assay
# Assay type: cell-based
# Settings: HiBiT-tagged HPK1 Jurkat cells, 24 hours, 10 uM to 0.1 nM; Dmax = 100 minus lowest % HPK1 remaining vs DMSO vehicle
# In short: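 Dmax is derived from four-parameter curves of % HPK1 remaining, as 100 minus the lowest value, normalized to DMSO-treated cells with parental Jurkat background subtracted. HiBiT-HPK1 knock-in Jurkat cells got compound for 24 hours (final 10 uM to 0.1 nM, 11 points) before lytic HiBiT luminescence. Cytotoxicity was checked on parallel CellTiter-Glo plates.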
# T1 sequence (Q92918 whole entry): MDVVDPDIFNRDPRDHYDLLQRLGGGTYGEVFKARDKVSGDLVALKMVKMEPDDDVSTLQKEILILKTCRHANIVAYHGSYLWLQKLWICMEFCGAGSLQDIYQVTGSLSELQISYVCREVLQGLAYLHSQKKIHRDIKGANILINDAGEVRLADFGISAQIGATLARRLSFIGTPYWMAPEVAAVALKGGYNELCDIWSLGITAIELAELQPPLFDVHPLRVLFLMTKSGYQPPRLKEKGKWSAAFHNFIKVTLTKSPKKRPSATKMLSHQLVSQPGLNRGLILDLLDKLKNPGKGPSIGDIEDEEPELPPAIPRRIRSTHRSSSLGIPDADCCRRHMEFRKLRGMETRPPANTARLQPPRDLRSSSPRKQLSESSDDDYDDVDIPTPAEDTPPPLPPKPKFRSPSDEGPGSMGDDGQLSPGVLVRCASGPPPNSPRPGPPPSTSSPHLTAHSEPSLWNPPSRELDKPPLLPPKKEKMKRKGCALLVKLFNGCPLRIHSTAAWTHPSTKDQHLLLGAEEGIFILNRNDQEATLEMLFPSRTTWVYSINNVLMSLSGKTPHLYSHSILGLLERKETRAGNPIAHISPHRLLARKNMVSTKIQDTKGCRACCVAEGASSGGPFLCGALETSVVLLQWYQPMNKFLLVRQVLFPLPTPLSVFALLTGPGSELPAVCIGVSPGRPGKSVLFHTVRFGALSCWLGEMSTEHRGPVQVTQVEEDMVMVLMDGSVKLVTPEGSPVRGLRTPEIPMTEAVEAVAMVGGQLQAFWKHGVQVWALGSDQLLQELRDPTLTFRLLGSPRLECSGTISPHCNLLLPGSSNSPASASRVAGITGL
Dmax,SMILES,Cellular HPK1 HiBiT: Dmax (%)
> 65%,"Cc1cc(F)c(Nc2nc(-c3ccc4c(c3)N([C@H]3C[C@@H](N5CCCCC5)C3)C(=O)C43CCN(C(=O)C4CCN(C(=O)[C@H]5CC[C@H](Nc6cccc7c6C(=O)N(C6CCC(=O)NC6=O)C7=O)CC5)CC4)CC3)cc3ncn(C(C)C)c23)cc1C(=O)NC(C)C (stereo partly drawn) [Example 60, 4-fluoro-2-methyl-5-{[6-(2-oxo-1′-{1-[(1R,4R)-4-({2-[2,6-dioxopiperidin-3-yl]-1,3-dioxo-2,3-dihydro-1H-isoindol-4-yl}amino)cyclohexanecarbonyl]piperidine-4-carbonyl}-1-[(1s,3s)-3-(piperidin-1-yl)cyclobutyl]-1,2-dihydrospiro[indole-3,4′-piperidin]-6-yl)-3-(propan-2-yl)-3H-imidazo[4,5-c]pyridin-4-yl]amino}-N-(propan-2-yl)benzamide]",
,"Cc1cc(F)c(Nc2nc(-c3ccc4c(c3)N(C3CC(N5CCCCC5)C3)C(=O)C43CCN(C(=O)c4ccc(C(=O)N(C)C5CCC(Nc6cccc7c6C(=O)N(C6CCC(=O)NC6=O)C7=O)CC5)cc4)CC3)cc3ncn(C(C)C)c23)cc1C(=O)NC(C)C [Example 61, 4-fluoro-2-methyl-5-({6-[1′-(4-{methyl[(1R,4R)-4-{[2-(2,6-dioxopiperidin-3-yl)-1,3-dioxo-2,3-dihydro-1H-isoindol-4-yl]amino}cyclohexyl]carbamoyl}benzoyl)-2-oxo-1-[(1s,3s)-3-(piperidin-1-yl)cyclobutyl]-1,2-dihydrospiro[indole-3,4′-piperidin]-6-yl]-3-(propan-2-yl)-3H-imidazo[4,5-c]pyridin-4-yl}amino)-N-(propan-2-yl)benzamide]",A (A>65%)
45 to 65%,"Cc1cc(F)c(Nc2nc(-c3ccc4c(c3)N([C@H]3C[C@@H](N5CCCCC5)C3)C(=O)C43CCN(C(=O)[C@H]4CC[C@@H](C(=O)N5CCC(N(C)c6cccc7c6C(=O)N(C6CCC(=O)NC6=O)C7=O)CC5)CC4)CC3)cc3ncn(C(C)C)c23)cc1C(=O)NC(C)C (stereo partly drawn) [Example 62, 4-fluoro-2-methyl-5-[(6-{2-oxo-1-[(1s,3s)-3-(piperidin-1-yl)cyclobutyl]-1′-[(1S,4s)-4-(4-{[2-(2,6-dioxopiperidin-3-yl)-1,3-dioxo-2,3-dihydro-1H-isoindol-4-yl](methyl)amino}piperidine-1-carbonyl)cyclohexanecarbonyl]-1,2-dihydrospiro[indole-3,4′-piperidin]-6-yl}-3-(propan-2-yl)-3H-imidazo[4,5-c]pyridin-4-yl)amino]-N-(propan-2-yl)benzamide]",
> 65%,"Cc1cc(F)c(Nc2nc(-c3ccc4c(c3)N([C@H]3C[C@@H](N5CCCCC5)C3)C(=O)C43CCN(C(=O)c4ccc(OC5CCN(c6cccc7c6C(=O)N(C6CCC(=O)NC6=O)C7=O)CC5)cc4)CC3)cc3ncn(C(C)C)c23)cc1C(=O)NC(C)C (some centres unmarked) [Example 63, 5-{[6-(1′-{4-[(1-{2-[2,6-dioxopiperidin-3-yl]-1,3-dioxo-2,3-dihydro-1H-isoindol-4-yl}piperidin-4-yl)oxy]benzoyl}-2-oxo-1-[(1s,3s)-3-(piperidin-1-yl)cyclobutyl]-1,2-dihydrospiro[indole-3,4′-piperidin]-6-yl)-3-(propan-2-yl)-3H-imidazo[4,5-c]pyridin-4-yl]amino}-4-fluoro-2-methyl-N-(propan-2-yl)benzamide]",
> 65%,"Cc1cc(F)c(Nc2nc(-c3ccc4c(c3)N([C@H]3C[C@@H](N5CCCCC5)C3)C(=O)C43CCN(C(=O)c4ccc(OC5CCN(c6ccc7c(c6)C(=O)N(C6CCC(=O)NC6=O)C7=O)CC5)cc4)CC3)cc3ncn(C(C)C)c23)cc1C(=O)NC(C)C (some centres unmarked) [Example 64, 5-{[6-(1′-{4-[(1-{2-[2,6-dioxopiperidin-3-yl]-1,3-dioxo-2,3-dihydro-1H-isoindol-5-yl}piperidin-4-yl)oxy]benzoyl}-2-oxo-1-[(1s,3s)-3-(piperidin-1-yl)cyclobutyl]-1,2-dihydrospiro[indole-3,4′-piperidin]-6-yl)-3-(propan-2-yl)-3H-imidazo[4,5-c]pyridin-4-yl]amino}-4-fluoro-2-methyl-N-(propan-2-yl)benzamide]",
